Data from patent US7589078B2, “Anti-viral nucleoside analogs and methods for treating viral infections, especially HIV infections” (Yale University, priority 2003, dated 2009).
Entries after “also recorded” stand apart in the source; their conditions may differ. Where two headings read alike, the source gives them in different places.

Tests used:
[1] = system: CEM cellular extract supplemented with partially purified TK-1 and recombinant human dTMP kinase; assay: Phosphorylation to triphosphate in CEM cellular extract with TK-1 and dTMP kinase; type: biochemical; conditions: unpublished results
Acid stability study = type: physicochemical; conditions: 1N HCl, pH 1, 37° C., 2.5 h, HPLC
Procedure: Acid stability studies: Nucleoside samples were mixed with 1N HCl and incubated at 37° C. for 2.5 h. Then the samples were examined by HPLC using a Bechman ODS column employing a gradient of water to 80% methanol.

HIV-1 strain IIIB [2] = assay: Antiviral activity in MT-2 cells infected with HIV-1 strain IIIB (MTT); type: cell-based
Procedure: Determination of antiviral activity: Compounds were tested in MT-2 cells infected with HIV-1 strain IIIB essentially as described previously (31). […]. Calculations of the percent protection and isobologram combination studies are described (12).

thymidine kinase (TK-1) [3] = target: T1, thymidine kinase (TK-1) (Homo sapiens, UniProt P04183); assay: Thymidine kinase assay with added nucleoside ([14C]-dThd to dTMP); conditions: [14C]-dThd 25 μM, added nucleoside 250 μM; compared to reactions with no additions
T1 sequence (P04183 1-234): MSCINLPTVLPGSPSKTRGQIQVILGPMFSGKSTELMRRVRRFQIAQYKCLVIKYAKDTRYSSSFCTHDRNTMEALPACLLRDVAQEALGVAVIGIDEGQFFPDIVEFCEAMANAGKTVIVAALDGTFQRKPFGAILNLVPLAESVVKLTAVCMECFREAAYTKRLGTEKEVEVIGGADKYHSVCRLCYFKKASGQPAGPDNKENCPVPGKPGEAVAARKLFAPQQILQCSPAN
Procedure: After two additional washes in ethanol, the discs were dried and placed in scintillation vials that contained 5 ml SafeScint Scintillation Cocktail (American Bioanalytical, Natick, Mass.). The amount of radioactivity, which represents the amount of dTMP formed, was quantitated in a Beckman LS5000TD Scintillation Counter (Beckman Instruments Inc., Palo Alto, Calif.).

[4] = system: mtDNA content of CEM cells; assay: Mitochondrial DNA content in CEM cells (Southern blot); type: cell-based; conditions: for IC50: four days, read-out: Mitochondrial DNA Content ID50
Procedure: Mitochondrial DNA: The effect of nucleoside analogs on mtDNA content was assessed as described previously (2). […] Cells treated with drugs at various concentrations either as single agents or in combination were grown for four days. Cells were then harvested, treated with proteinase K and DNase free RNase. Extracts were applied to nylon membranes and hybridized with an mtDNA probe. After stripping the membrane the load was normalized by rehybridizing the membrane with an Alu probe. Blots were quantitated with a Molecular Dynamics personal densitometer SI with ImageQuaNT analysis software.

[5] = target: T2, thymidine phosphorylase (TP) (Homo sapiens, UniProt P19971); assay: Thymidine phosphorylase assay; type: in vitro ADME; conditions: partially purified TP from human liver
T2 construct: using a partially purified prepartion of human liver extract (28) as a source of the thymidine phosphorylase (TP); from tissue; host or cells: human liver extract, partially purified
T2 sequence (P19971 11-482): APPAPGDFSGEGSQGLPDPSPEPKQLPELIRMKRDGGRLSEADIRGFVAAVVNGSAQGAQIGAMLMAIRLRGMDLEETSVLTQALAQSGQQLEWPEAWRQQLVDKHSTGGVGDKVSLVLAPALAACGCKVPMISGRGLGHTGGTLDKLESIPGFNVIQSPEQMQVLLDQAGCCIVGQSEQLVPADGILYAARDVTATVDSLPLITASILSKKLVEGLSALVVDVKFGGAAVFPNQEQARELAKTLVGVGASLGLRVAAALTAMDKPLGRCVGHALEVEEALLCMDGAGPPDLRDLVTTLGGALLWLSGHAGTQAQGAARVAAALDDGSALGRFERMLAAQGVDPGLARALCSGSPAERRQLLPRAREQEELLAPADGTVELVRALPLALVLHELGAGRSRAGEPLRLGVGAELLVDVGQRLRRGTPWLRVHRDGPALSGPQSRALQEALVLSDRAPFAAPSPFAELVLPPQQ
Procedure: Thymidine Phosphorylase Assays: Nucleoside analogs (100 μM) were incubated in 75 mM potassium phosphate buffer pH 7.3 at 37° C. using a partially purified prepartion of human liver extract (28) as a source of the thymidine phosphorylase (TP). After incubation, the reaction was stopped by the addition of trichloroacetic acid to a final concentration of 15%. The samples were then incubated on ice. After the acid insoluble components were removed by centrifugation, the supernatant was neutralized by two extractions with one half volume of trioctylamine/freon (45:55). The aqueous supernatants were examined by HPLC using the Beckman ODS column method, as described in Acid Stability Studies.

CEM cells = assay: Cellular toxicity in CEM cells (cell counts); conditions: for IC50: Homo sapiens, CCRF-CEM, 96 h, read-out: Cellular ID50
Procedure: The basic procedures are similar. The cells are seeded a low concentration, then serial dilutions of test compound are added. […] After 48 to 96 h incubation at 37° C. in a 5% CO2 humidified incubator the assay is ended. The drug treated samples are compared to the untreated controls. This is accomplished in suspension cell lines by counting cell numbers either with a hemocytometer or by using a Coulter Counter.
The numbers in parentheses represent the mean and standard deviations of percentage of untreated CEM control cells at the concentration indicated.

MT-2 cells = assay: Cellular toxicity, MT-2 cell growth; type: cell-based; conditions: for IC50: Homo sapiens, MT2, MT-2 cells, read-out: ID50: concentration required to inhibit MT-2 cell growth by 50%
Text: (§1) The basic procedures are similar.

thymidine kinase (TK-1) [6] = target: T1, thymidine kinase (TK-1); assay: Monophosphorylation of analogs by thymidine kinase; type: biochemical; parameters: phosphorylated by thymidine kinase (TK-1) from CEM cells; endogenous in cells; conditions: for Relative Vmax: 250 μM dThd or analog, 2.4 mM ATP, 0.07 unit TK-1, 37° C., 285 min, dThd = 100
Procedure: Monophosphorylation of Analogs by Thymidine Kinase: All the analogs were tested for their ability to be phosphorylated by thymidine kinase (TK-1) from CEM cells. This enzyme was purified by an affinity column technique developed in this laboratory (7). […] At the end of the incubation time the reaction was stopped by the addition of 3 parts cold HPLC grade methanol. After incubating on ice for at least 10 min. the methanol insoluble material is precipitated by centrifugation and the methanol soluble supernatants were placed into clean microfuge tubes. These samples were brought to dryness in a Speedvac Centrifuge. The samples were dissolved in water and separated on a Shimatzu HPLC model SCL 10Avp using a gradient of water to 300 mM potassium phosphate and a Whatman 10/25 particle SAX column. Km and relative Vmax studies were done in a similar fashion, using the same mixture and different amounts of substrate and enzyme.

HIV = conditions: Maag et al (29), O-Yang et al (32); cited from earlier work
HIV-1 strain IIIB [7] = conditions: MT-2 cells; EC50 reported previously (17); read-out: EC50: effective concentration required to achieve 50% protection from HIV in MT-2 cells; cited from earlier work
H-9 cells = assay: Toxicity in H-9 cells alone and in combination (Coulter Counter); type: cell-based; conditions: for Percent of Untreated Controls: H-9 cells, 48 h
Text: as §1

[8] = substrate: C#C[C@@]1(CO)C=C[C@H](n2cc(C)c(=O)[nH]c2=O)O1; assay: Monophosphorylation of analogs by thymidine kinase; type: biochemical; conditions: other: phosphorylation by human cytoplasmic thymidine kinase; pH 7.5
Procedure: Monophosphorylation of Analogs by Thymidine Kinase: All the analogs were tested for their ability to be phosphorylated by thymidine kinase (TK-1) from CEM cells. […] At the end of the incubation time the reaction was stopped by the addition of 3 parts cold HPLC grade methanol. After incubating on ice for at least 10 min. the methanol insoluble material is precipitated by centrifugation and the methanol soluble supernatants were placed into clean microfuge tubes. These samples were brought to dryness in a Speedvac Centrifuge. The samples were dissolved in water and separated on a Shimatzu HPLC model SCL 10Avp using a gradient of water to 300 mM potassium phosphate and a Whatman 10/25 particle SAX column. Km and relative Vmax studies were done in a similar fashion, using the same mixture and different amounts of substrate and enzyme.

[9] = substrate: Cc1cn([C@H]2C=C[C@@H](CO)O2)c(=O)[nH]c1=O; assay: purified protein, by the assay type; conditions: other: phosphorylation by human cytoplasmic thymidine kinase; pH 7.5; 37.0 °C

Molecule: Cc1cn([C@H]2C=C[C@@H](CO)O2)c(=O)[nH]c1=O [D4T, 2′,3′-Didehydro-3′-deoxythymidine, reference compound]
- Phosphorylation to the triphosphate metabolite [1]: more efficiently phosphorylated to the triphosphate metabolite than 4′-ethynyl D4T
- Stability at pH 1 (Acid stability study): No detectable breakdown
- EC50 (HIV-1 strain IIIB [2]; Human immunodeficiency virus 1, IIIB, MT2, read-out: EC50: effective concentration required to achieve 50% protection from HIV in MT-2 cells): 1.3 ± 0.4 µM
- EC50 (HIV-1 strain IIIB [2]; Human immunodeficiency virus 1, IIIB, MT2, read-out: EC50 for single agents (isobologram study)): 1.4 µM
- Percent of Activity (thymidine kinase (TK-1) [3]): 106.3 ± 7.7%
- IC50 ([4]; Homo sapiens, CCRF-CEM, 96 h): 9.3 ± 1.4 µM
- Break down by thymidine phosphorylase, times slower than dThd [5]: at least 10 times
- IC50 (CEM cells): 60 ± 18 µM
- IC50 (MT-2 cells): 98 ± 10.8 µM
- Relative Vmax (thymidine kinase (TK-1) [6]): 2.1 ± 0.7
- Rate of conversion to the monophosphate form (thymidine kinase (TK-1) [6]; purified human TK-1): approximately 2% of dThd

Molecule: Cc1cn([C@H]2C=C[C@](CO)(N=[N+]=[N-])O2)c(=O)[nH]c1=O [4′-azido D4T]
- Anti-HIV activity as described by others (HIV): inactive against HIV at non-toxic levels

Molecule: C#C[C@@]1(CO)C=C[C@H](n2cc(C)c(=O)[nH]c2=O)O1 [4′-ethynyl D4T, 2′,3′-didehydro-3′-deoxy-4′-ethynylthymidine]
- Stability at pH 1 (Acid stability study): No detectable breakdown
- EC50 (HIV-1 strain IIIB [7]): 0.25 ± 0.14 µM
- EC50 (HIV-1 strain IIIB [2]; Human immunodeficiency virus 1, MT2, MT-2/HIV IIIB system, FIG. 10, read-out: EC50 for single agents (isobologram study)): 0.5 µM
- Anti-HIV activity compared with D4T (HIV-1 strain IIIB [2]; MT-2/IIIB anti HIV-1 system, FIG. 8): more effective against HIV
- Effect of addition of dCyd on the antiviral activity (HIV-1 strain IIIB [2]; dCyd 10 μM in the presence of THU 5 μM, FIG. 9): no significant effect
- Effect of addition of dThd on the antiviral activity (HIV-1 strain IIIB [2]; dThd 10 μM and 1 μM added to standard antiviral assay, FIG. 9): decreased the antiviral effect
- Antiviral interaction in combination (isobologram) (HIV-1 strain IIIB [2]; in combination with 3TC): synergistic
- Antiviral interaction in combination (isobologram) (HIV-1 strain IIIB [2]; in combination with AZT (data not shown)): only additive
- Antiviral interaction in combination (isobologram) (HIV-1 strain IIIB [2]; in combination with LFd4C): synergistic
- Antiviral interaction in combination (isobologram) (HIV-1 strain IIIB [2]; in combination with ddI (data not shown)): only additive
- Percent of Activity (thymidine kinase (TK-1) [3]): 83.9 ± 6.1%
- IC50 ([4]; Homo sapiens, CCRF-CEM, 96 h): > 100 µM
- Mitochondrial DNA content, percentage of untreated CEM control cells ([4]; at 100 μM): 94 ± 4%
- IC50 [4]: 100 µM
- Break down by thymidine phosphorylase ([5]; 100 μM nucleoside, 37° C., FIG. 11): below the detection level
- Cell count, percentage of untreated CEM control cells (CEM cells; CEM cells, at 100 μM): 77 ± 16%
- IC50 (CEM cells): > 100 µM
- IC50 (MT-2 cells): > 256 µM
- Toxicity compared with D4T (MT-2 cells; MT-2/IIIB system): less toxic than the parental compound D4T
- Toxic interaction on cell growth in combination with 3TC and LFd4C (H-9 cells; H9 cells, 48 h assay): no significant increase in toxic interactions
- Percent of Untreated Controls (H-9 cells; 25 μM 4′-ethynyl D4T plus 5 μM 3TC): 98 ± 2%
- Percent of Untreated Controls (H-9 cells; 25 μM 4′-ethynyl D4T plus 5 μM LFd4C): 62 ± 3%
- Percent of Untreated Controls (H-9 cells; 25 μM 4′-ethynyl D4T plus 10 μM LFd4C): 58 ± 4%
- Percent of Untreated Controls (H-9 cells; 25 μM 4′-ethynyl D4T plus 20 μM 3TC): 88 ± 3%
- Percent of Untreated Controls (H-9 cells; 25 μM 4′-ethynyl D4T plus 100 μM 3TC): 85 ± 3%
- Percent of Untreated Controls (H-9 cells; 25 μM 4′-ethynyl D4T, no additive): 97 ± 7%
- Percent of Untreated Controls (H-9 cells; 50 μM 4′-ethynyl D4T plus 5 μM 3TC): 99 ± 10%
- Percent of Untreated Controls (H-9 cells; 50 μM 4′-ethynyl D4T plus 5 μM LFd4C): 72 ± 5%
- Percent of Untreated Controls (H-9 cells; 50 μM 4′-ethynyl D4T plus 10 μM LFd4C): 64 ± 5%
- Percent of Untreated Controls (H-9 cells; 50 μM 4′-ethynyl D4T plus 20 μM 3TC): 87 ± 6%
- Percent of Untreated Controls (H-9 cells; 50 μM 4′-ethynyl D4T plus 100 μM 3TC): 84 ± 6%
- Percent of Untreated Controls (H-9 cells; 50 μM 4′-ethynyl D4T, no additive): 102 ± 6%
- Relative Vmax (thymidine kinase (TK-1) [6]): 3.8 ± 0.8
- Rate of phosphorylation by TK-1, in words (thymidine kinase (TK-1) [6]; purified human TK-1): superior to D4T; also recorded: twice as fast as D4T

B1: thymidine kinase (TK-1) (Homo sapiens) (protein)
chain: MSCINLPTVLPGSPSKTRGQIQVILGPMFSGKSTELMRRVRRFQIAQYKCLVIKYAKDTRYSSSFCTHDRNTMEALPACLLRDVAQEALGVAVIGIDEGQFFPDIVEFCEAMANAGKTVIVAALDGTFQRKPFGAILNLVPLAESVVKLTAVCMECFREAAYTKRLGTEKEVEVIGGADKYHSVCRLCYFKKASGQPAGPDNKENCPVPGKPGEAVAARKLFAPQQILQCSPAN
notes: phosphorylated by thymidine kinase (TK-1) from CEM cells; endogenous in cells
- Km [8]: 52 µM
- Km [9]: 133 µM
